According to US4260745A, “3-Halo cephalosporins” (Eli Lilly and Company, priority 1979, dated 1981):
Structures can show the parent of a compound that is named as a salt. Where two headings read alike, the source gives them in different places.

Test: Electrometric titration
Type: physicochemical
[1] = 66% aqueous dmf, only or first pKa, read-out: pKa

Row | Compound | pKa [1] | pKa (60% aqueous dmf, 60% aq. DMF, first group, read-out: titratable groups) | pKa (60% aqueous dmf, 60% aq. DMF, second group, read-out: titratable groups)
1 | COC(=O)C1=C(O)CS[C@@H]2C(NC(=O)COc3ccccc3)C(=O)N12 (some centres unmarked) [Example 9, Methyl 7-phenoxyacetamido-3-hydroxy-3-cephem-4-carboxylate] | 5.6 |  | 
2 | O=C(Cc1cccs1)NC1C(=O)N2C(C(=O)OCc3ccc([N+](=O)[O-])cc3)=C(O)CS[C@H]12 (some centres unmarked) [Example 12, p-Nitrobenzyl 7-[2-(2-thienyl)acetamido]-3-hydroxy-3-cephem-4-carboxylate] | 5.9 |  | 
3 | CC(=O)NC1C(=O)N2C(C(=O)OCc3ccc([N+](=O)[O-])cc3)=C(O)CS[C@H]12 (some centres unmarked) [Example 13, p-Nitrobenzyl 7-acetamido-3-hydroxy-3-cephem-4-carboxylate] | 5.9 |  | 
4 | NC1C(=O)N2C(C(=O)OC(c3ccccc3)c3ccccc3)=C(O)CS[C@H]12 (some centres unmarked) [diphenylmethyl 7-amino-3-hydroxy-3-cephem-4-carboxylate hydrochloride] |  | 4.5 | 6.5
